Laboratory results from patent US10285989B2, “Pyrimidinone amide compounds as PDE2 inhibitors” (Merck Sharp & Dohme Corp., priority 2015, dated 2019).
Read-outs that look alike come from different tables or passages of the source.

Tests used:
human PDE2A1 = human PDE2A1 (Homo sapiens (Human), UniProt O00408); test: PDE2 IMAP FP inhibition assay, human PDE2A1 (selectivity panel format); format: biochemical
Protocol: Selectivity for PDE2, as compared to other PDE families, was assessed using the IMAP® technology. Human PDE10A2 enzyme was prepared from cytosolic fractions of transiently transfected HEK cells.
A Labcyte POD 810 (Labcyte, Sunnyvale, Calif.) was used to dispense 200 nL from each well of the titration plate to make eleven copies of the assay plate for each titration, one copy for each PDE enzyme. A solution of each enzyme (dilution from aliquots, sufficient to produce 20% substrate conversion) and a separate solution of FAM-labeled cAMP or FAM-labeled cGMP from Molecular Devices (Sunnyvale, Calif., product # R7506 or cGMP#R7508), at a final concentration of 50 nM were made in the assay buffer (10 mM Tris HCl, pH 7.2, 10 mM MgCl2, 0.05% NaN3 0.01% Tween-20, and 1 mM DTT). Note that the substrate for PDE2 is 50 nM FAM cAMP containing 1000 nM of cGMP. The enzyme and the substrate were then added to the assay plates in two consecutive additions of 10 μL and then shaken to mix. The reaction was allowed to proceed at room temperature for 60 minutes. A binding solution was then made from the kit components, comprised of 80% Solution A, 20% Solution B and binding reagent at a volume of 1/600 the total binding solution. The enzymatic reaction was stopped by addition of 60 μL of the binding solution to each well of the assay plate. The plates were sealed and shaken for 10 seconds. The plates were incubated at room temperature for one hour, then the parallel and perpendicular fluorescence was measured using a Tecan Genios Pro plate reader (Tecan, Switzerland). […] The intrinsic PDE2 inhibitory activity of a compound which may be used in accordance with the present invention may be determined by these assays. […]

Rhesus PDE2A3 = Rhesus PDE2A3 (Macaca mulatta, UniProt B3VTJ2); test: PDE2 fluorescence polarization (IMAP FP) inhibition assay, rhesus PDE2A3; format: biochemical, rhesus macaque
Protocol: A Labcyte Echo 555 (Labcyte, Sunnyvale, Calif.) is used to dispense 200 nL from each well of the titration plate to the 384 well assay plate. Ten microliters of a solution of enzyme (1/2000 final dilution from aliquots; sufficient to produce 20% substrate conversion) was added to the assay plate. Next 10 uL of a separate solution of the substrate FAM-labeled cAMP (50 nM final concentration product # R^7506 from Molecular Devices) and the activator cGMP (1 uM final concentration), prepared in the assay buffer (10 mM Tris HCl, pH 7.2, 10 mM MgCl2, 0.05% NaN3 0.01% Tween-20, and 1 mM DTT) was added to the assay plate and shaken to mix. The reaction is allowed to proceed at room temperature for 60 minutes. A binding solution is then made from the kit components, comprised of 80% Solution A, 20% Solution B and binding reagent at a volume of 1/600 the total binding solution. The enzymatic reaction is stopped by addition of 60 μL of the binding solution to each well of the assay plates and the plates are sealed and shaken for 30 seconds. The plate was incubated at room temperature for at least one hour prior to determining the fluorescence polarization (FP). The parallel and perpendicular fluorescence of each well of the plate was measured using a Tecan Genios Pro plate reader (Tecan, Switzerland) or Perkin Elmer EnVision™ plate reader (Waltham, Mass.). Fluorescence polarization (mP) was calculated from the parallel (S) and perpendicular (P) fluorescence of each sample well and the analogous values for the median control well, containing only substrate (So and Po), using the following equation: Polarization (mP)=1000*(S/So−P/Po)/(S/So+P/Po).
Dose-inhibition profiles for each compound were characterized by fitting the mP data to a four-parameter equation given below.
An apparent (KM) for FAM-labeled cAMP of ˜10 uM was used.

[1] = Lab B, read-out: Human PDE2 Ki (nM) - Lab B
[2] = Lab B, read-out: Rhesus PDE2 Ki (nM) - Lab B
[3] = Lab A, read-out: Rhesus PDE2 Ki (nM) - Lab A
[4] = Lab A, read-out: Human PDE2 Ki (nM) - Lab A

Rhesus PDE2A3, sequence (B3VTJ2 1-941): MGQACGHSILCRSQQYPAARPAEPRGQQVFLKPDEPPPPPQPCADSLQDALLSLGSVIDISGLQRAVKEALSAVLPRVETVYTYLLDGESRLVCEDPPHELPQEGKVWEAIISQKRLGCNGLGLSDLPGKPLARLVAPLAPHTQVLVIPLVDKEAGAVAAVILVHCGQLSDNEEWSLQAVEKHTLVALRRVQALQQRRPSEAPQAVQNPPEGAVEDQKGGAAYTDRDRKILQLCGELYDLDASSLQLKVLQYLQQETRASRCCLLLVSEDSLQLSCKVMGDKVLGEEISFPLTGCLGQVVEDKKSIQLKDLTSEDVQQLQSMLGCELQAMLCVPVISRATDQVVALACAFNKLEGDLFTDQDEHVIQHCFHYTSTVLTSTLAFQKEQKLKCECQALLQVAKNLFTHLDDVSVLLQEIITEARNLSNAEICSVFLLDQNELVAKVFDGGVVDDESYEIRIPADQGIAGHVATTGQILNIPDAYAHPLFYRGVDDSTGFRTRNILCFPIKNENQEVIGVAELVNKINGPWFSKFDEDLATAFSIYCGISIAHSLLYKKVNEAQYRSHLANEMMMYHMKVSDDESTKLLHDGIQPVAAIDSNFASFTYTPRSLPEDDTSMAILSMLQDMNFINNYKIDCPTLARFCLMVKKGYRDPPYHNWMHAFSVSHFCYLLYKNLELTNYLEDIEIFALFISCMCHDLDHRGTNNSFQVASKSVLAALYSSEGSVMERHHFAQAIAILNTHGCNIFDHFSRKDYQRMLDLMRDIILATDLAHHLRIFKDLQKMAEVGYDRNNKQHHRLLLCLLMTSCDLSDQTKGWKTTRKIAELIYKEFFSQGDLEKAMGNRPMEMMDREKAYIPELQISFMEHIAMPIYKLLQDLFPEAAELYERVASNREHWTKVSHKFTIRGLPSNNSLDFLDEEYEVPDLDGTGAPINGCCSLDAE
human PDE2A1, sequence (O00408 other isoform, or with tags, fused parts or gaps): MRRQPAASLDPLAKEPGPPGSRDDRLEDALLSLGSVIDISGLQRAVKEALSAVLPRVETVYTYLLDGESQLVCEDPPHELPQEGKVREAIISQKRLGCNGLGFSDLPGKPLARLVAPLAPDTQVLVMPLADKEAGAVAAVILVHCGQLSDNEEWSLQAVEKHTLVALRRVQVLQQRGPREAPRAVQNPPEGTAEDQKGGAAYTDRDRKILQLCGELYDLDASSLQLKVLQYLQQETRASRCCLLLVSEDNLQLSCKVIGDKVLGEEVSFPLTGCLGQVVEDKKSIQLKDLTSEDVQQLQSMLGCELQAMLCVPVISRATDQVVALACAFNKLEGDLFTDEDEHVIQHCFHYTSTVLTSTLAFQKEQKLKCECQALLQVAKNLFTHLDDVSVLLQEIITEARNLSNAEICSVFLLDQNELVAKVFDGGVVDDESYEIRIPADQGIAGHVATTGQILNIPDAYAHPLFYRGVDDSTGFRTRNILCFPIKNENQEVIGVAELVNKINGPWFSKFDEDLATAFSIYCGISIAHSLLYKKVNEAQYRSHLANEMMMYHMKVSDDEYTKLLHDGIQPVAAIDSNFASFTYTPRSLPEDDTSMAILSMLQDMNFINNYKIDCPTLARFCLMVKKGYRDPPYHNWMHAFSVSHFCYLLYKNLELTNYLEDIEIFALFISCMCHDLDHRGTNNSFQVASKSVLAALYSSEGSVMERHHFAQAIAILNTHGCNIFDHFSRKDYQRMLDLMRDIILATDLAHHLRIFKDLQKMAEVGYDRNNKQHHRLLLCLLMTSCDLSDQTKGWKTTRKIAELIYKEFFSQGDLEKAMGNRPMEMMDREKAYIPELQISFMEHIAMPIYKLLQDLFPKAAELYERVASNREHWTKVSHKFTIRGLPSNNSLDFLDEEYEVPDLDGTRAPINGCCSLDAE

Ki (Rhesus PDE2A3; [3]) [nM] | Compound | further results
 | CN(C)c1nc(C(=O)NC(c2ccc(C3(C)CC3)c(F)c2)C(C)(C)C)cc(=O)[nH]1 (single isomer, unassigned) [Example 124, (R)- or (S)-2-(dimethylamino)-N-{1-[3-fluoro-4-(1-methylcyclopropyl)phenyl]-2,2-dimethylpropyl}-6-oxo-1,6-dihydropyrimidine-4-carboxamide] | Ki (human PDE2A1; [1]): 0.34 nM; Ki (Rhesus PDE2A3; [2]): 0.45 nM
0.82 | C[C@@H](NC(=O)c1cc(=O)[nH]c(N(C)C)n1)c1ccc(OC(F)(F)F)c(Cl)c1 [Example 3, (R)—N-(1-(3-chloro-4-(trifluoromethoxy)phenyl)ethyl)-2-(dimethylamino)-6-oxo-1,6-dihydropyrimidine-4-carboxamide] | Ki (human PDE2A1; [1]): 1.6 nM; Ki (Rhesus PDE2A3; [2]): 1.5 nM
30 | C[C@@H](NC(=O)c1cc(=O)[nH]c(N2CC[C@@H](F)C2)n1)c1ccc(C(F)(F)F)cc1 [Example 11, 2-((R)-3-fluoropyrrolidin-1-yl)-6-oxo-N—((R)-1-(4-(trifluoromethyl)phenyl)ethyl)-1,6-dihydropyrimidine-4-carboxamide] | Ki (human PDE2A1; [4]): 18 nM
 | COCC1CCN(c2nc(C(=O)N[C@@H](c3ccc(C(F)(F)F)cc3)C(C)(C)C)cc(=O)[nH]2)C1 (stereo partly drawn) [Example 14, N—((R)-2,2-dimethyl-1-(4-(trifluoromethyl)phen)propyl)-2-(3-(methoxymethyl)pyrrolidin-1-yl)-6-oxo-1,6-dihydropyrimidine-4-carboxamide] | Ki (human PDE2A1; [1]): 0.34 nM; Ki (Rhesus PDE2A3; Rhesus PDE2 Ki (nM) - Lab B, Lab B): 0.41 nM
46 | CSc1nc(C(=O)N[C@H](C)c2ccc(C(F)(F)F)cc2)cc(=O)[nH]1 [Example 15, (R)-2-(methylthio)-6-oxo-N-(1-(4-(trifluoromethyl)phenyl)ethyl)-1,6-dihydropyrimidine-4-carboxamide] | Ki (human PDE2A1; [4]): 31 nM
130 | COc1nc(C(=O)N[C@H](C)c2ccc(C(F)(F)F)cc2)cc(=O)[nH]1 [Example 17, (R)-2-methoxy-6-oxo-N-(1-(4-(trifluoromethyl)phenyl)ethyl)-1,6-dihydropyrimidine-4-carboxamide] | Ki (human PDE2A1; [4]): 115 nM
63 | CCOc1nc(C(=O)N[C@H](C)c2ccc(C(F)(F)F)cc2)cc(=O)[nH]1 [Example 18, (R)-2-ethoxy-6-oxo-N-(1-(4-(trifluoromethyl)phenyl)ethyl)-1,6-dihydropyrimidine-4-carboxamide] | Ki (human PDE2A1; [4]): 72 nM
2930 | C[C@@H](NC(=O)c1cc(=O)[nH]c(Oc2ccccc2)n1)c1ccc(C(F)(F)F)cc1 [Example 19, (R)-6-oxo-2-phenoxy-N-(1-(4-(trifluoromethyl)phenyl)ethyl)-1,6-dihydropyrimidine-4-carboxamide] | 
657 | COCCOc1nc(C(=O)NC(C)c2ccc(C(F)(F)F)cc2)cc(=O)[nH]1 (stereo not shown) [Example 21, 2-(2-Methoxyethoxy)-6-oxo-N-(1-(4-(trifluoromethyl)phenyl)ethyl)-1,6-dihydropyrimidine-4-carboxamide] | 
727 | COc1ccc(Oc2nc(C(=O)N[C@H](C)c3ccc(C(F)(F)F)cc3)cc(=O)[nH]2)cc1OC [Example 22, (R)-2-(3,4-dimethoxyphenoxy)-6-oxo-N-(1-(4-(trifluoromethyl)phenyl)ethyl)-1,6-dihydropyrimidine-4-carboxamide] | Ki (human PDE2A1; [4]): 988 nM
79 | C[C@@H](NC(=O)c1cc(=O)[nH]c(N2CC(F)(F)C2)n1)c1ccc(C(F)(F)F)cc1 [Example 24, 2-(3,3-Difluoroazetidin-1-yl)-6-oxo-N-{(1R)-1-[4-(trifluoromethyl)phenyl]ethyl}-1,6-dihydropyrimidine-4-carboxamide] | Ki (human PDE2A1; [4]): 40 nM
86000 | CNCCCOc1nc(C(=O)NC(C)c2ccc(C(F)(F)F)cc2)cc(=O)[nH]1 (stereo not shown) [Example 180, 2-[3-(methylamino)propoxy]-6-oxo-N-{1-[4-(trifluoromethyl)phenyl]ethyl}-1,6-dihydro-pyrimidine-4-carboxamide] | 
> 100000 | CC(NC(=O)c1cc(=O)[nH]c(OC2CCN(C)C2)n1)c1ccc(C(F)(F)F)cc1 (stereo not shown) [Example 181, 2-[(1-methylpyrrolidin-3-yl)oxy]-6-oxo-N-{1-[4-(trifluoromethyl)phenyl]ethyl}-1,6-dihydro pyrimidine-4-carboxamide] | 
55000 | CC(NC(=O)c1cc(=O)[nH]c(OC2CCCN(C)C2)n1)c1ccc(C(F)(F)F)cc1 (stereo not shown) [Example 182, 2-[(1-methylpiperidin-3-yl)oxy]-6-oxo-N-{1-[4-(trifluoromethyl)phenyl]ethyl}-1,6-dihydro pyrimidine-4-carboxamide] | 
72000 | CC(NC(=O)c1cc(=O)[nH]c(OCCN(C)C)n1)c1ccc(C(F)(F)F)cc1 (stereo not shown) [Example 184, 2-[2-(dimethylamino)ethoxy]-6-oxo-N-{1-[4-(trifluoromethyl)phenyl]ethyl}-1,6-dihydro-pyrimidine-4-carboxamide] | 
> 100000 | CC(NC(=O)c1cc(=O)[nH]c(OC2CCNC2)n1)c1ccc(C(F)(F)F)cc1 (stereo not shown) [Example 185, 6-oxo-2-(pyrrolidin-3-yloxy)-N-{1-[4-(trifluoromethyl)phenyl]ethyl}-1,6-dihydropyrimidine-4-carboxamide] | 
> 100000 | CC(NC(=O)c1cc(=O)[nH]c(OC2CCNCC2)n1)c1ccc(C(F)(F)F)cc1 (stereo not shown) [Example 187, 6-oxo-2-(piperidin-4-yloxy)-N-{1-[4-(trifluoromethyl)phenyl]ethyl}-1,6-dihydropyrimidine-4-carboxamide] | 
12600 | CC(NC(=O)c1cc(=O)[nH]c(OCC2(C)COC2)n1)c1ccc(C(F)(F)F)cc1 (stereo not shown) [Example 188, 2-[(3-methyloxetan-3-yl)methoxy]-6-oxo-N-{1-[4-(trifluoromethyl)phenyl]ethyl}-1,6-dihydropyrimidine-4-carboxamide] | 
9310 | CNCCOc1nc(C(=O)NC(C)c2ccc(C(F)(F)F)cc2)cc(=O)[nH]1 (stereo not shown) [Example 189, 2-[2-(methylamino)ethoxy]-6-oxo-N-{1-[4-(trifluoromethyl)phenyl]ethyl}-1,6-dihydropyrimidine-4-carboxamide] | 
> 100000 | CC(NC(=O)c1cc(=O)[nH]c(OC2CCN(C)CC2)n1)c1ccc(C(F)(F)F)cc1 (stereo not shown) [Example 190, 2-[(1-methylpiperidin-4-yl)oxy]-6-oxo-N-{1-[4-(trifluoromethyl)phenyl]ethyl}-1,6-dihydro-pyrimidine-4-carboxamide] | 
> 100000 | CC(NC(=O)c1cc(=O)[nH]c(OC2CCCNC2)n1)c1ccc(C(F)(F)F)cc1 (stereo not shown) [Example 191, 6-oxo-2-(piperidin-3-yloxy)-N-{1-[4-(trifluoromethyl)phenyl]ethyl}-1,6-dihydropyrimidine-4-carboxamide] | 
11500 | CC(NC(=O)c1cc(=O)[nH]c(OC2COC2)n1)c1ccc(C(F)(F)F)cc1 (stereo not shown) [Example 192, 2-(oxetan-3-yloxy)-6-oxo-N-{1-[4-(trifluoromethyl)phenyl]ethyl}-1,6-dihydropyrimidine-4-carboxamide] | 
1060 | CC(NC(=O)c1cc(=O)[nH]c(OC2CCOC2)n1)c1ccc(C(F)(F)F)cc1 (stereo not shown) [Example 193, 6-oxo-2-(tetrahydrofuran-3-yloxy)-N-{1-[4-(trifluoromethyl)phenyl]ethyl}-1,6-dihydropyrimidine-4-carboxamide] | 

Compound | Ki (Rhesus PDE2A3; [3]) [nM] | further results
COC(C)(C)CCOc1nc(C(=O)NC(C)c2ccc(C(F)(F)F)cc2)cc(=O)[nH]1 (stereo not shown) [Example 186, 2-(3-methoxy-3-methylbutoxy)-6-oxo-N-{1-[4-(trifluoromethyl)phenyl]ethyl}-1,6-dihydro pyrimidine-4-carboxamide] | 352 | 
